Measurements published in patent US8680159B2, “Bradykinin 1 receptor modulating compounds” (Gruenenthal GmbH, priority 2010, dated 2014).

Target: T1, human B1R receptor (CHO K1 cells stably transfected with the human B1R gene) (Homo sapiens, UniProt P46663)
T1 construct: expressed in transfected cells; host or cells: CHO K1 cells (Chinese hamster ovary), stably transfected
T1 sequence (P46663 1-353): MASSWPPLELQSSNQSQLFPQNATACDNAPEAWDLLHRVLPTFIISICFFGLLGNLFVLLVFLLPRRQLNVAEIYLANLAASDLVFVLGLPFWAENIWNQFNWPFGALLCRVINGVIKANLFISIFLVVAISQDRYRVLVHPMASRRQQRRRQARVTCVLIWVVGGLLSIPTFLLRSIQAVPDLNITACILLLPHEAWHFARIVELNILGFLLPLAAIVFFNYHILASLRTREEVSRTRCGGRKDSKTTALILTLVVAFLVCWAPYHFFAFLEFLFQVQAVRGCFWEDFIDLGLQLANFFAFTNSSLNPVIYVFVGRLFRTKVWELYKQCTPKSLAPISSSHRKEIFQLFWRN
Assay: Functional study on the bradykinin receptor 1 (B1R), Ca2+ fluorescence (Fluo-4) FLIPR/Novostar assay, hB1R cells
Assay type: cell-based
Details: CHO-K1, read-out: % Inhibition (h-B1R) at 10 μM
Protocol: The agonistic or antagonistic action of substances can be quantified on the bradykinin receptor 1 (B1R) of the species human and rat using ectopically expressing cell lines (CHO K1 cells) and with the aid of a Ca^2+-sensitive dye (Fluo-4) using a fluorescent imaging plate reader (FLIPR). The indication in % activation is based on the Ca^2+ signal after addition of Lys-Des-Arg^9-bradykinin (0.5 nM) or Des-Arg^9-bradykinin (100 nM). Antagonists lead to suppression of the Ca^2+ influx after the addition of the agonist. % Inhibition compared with the maximum achievable inhibition is indicated.
The agonistic or antagonistic action of substances can be determined on the bradykinin receptor 1 (B1R) of the species human and rat using the following assay. According to this assay, the increase in intracellular Ca^2+ following administration of a B1R agonist is quantified with the aid of a Ca^2+-sensitive dye (Fluo-4 type, Molecular Probes Europe BV, Leiden, Netherlands) using a Fluorescent Imaging Plate Reader (FLIPR, Molecular Devices, Sunnyvale, USA) and/or using a Novostar (BMG Labtech GmbH, Offenburg, Germany).
Chinese hamster ovary cells (CHO K1 cells) which have been stably transfected with the human B1R gene (hB1R cells) or with the B1R gene of the rat (rB1R cells) are used. For functional studies, the cells are plated out on black 96-well plates having a clear base (BD Biosciences, Heidelberg, Germany or Greiner, Frickenhausen, Germany) in a density of 20,000-35,000 cells/well. The cells are left overnight at 37° C. and with 5% CO2 in culture medium (hB1R cells: Nutrient Mixture Ham's F12, Gibco Invitrogen GmbH, Karlsruhe, Germany or DMEM, Sigma-Aldrich, Taufkirchen, Germany; rB1R cells: D-MEM/F12, Gibco Invitrogen GmbH, Karlsruhe, Germany), with 10 vol. % FBS (fetal bovine serum, Gibco Invitrogen GmbH, Karlsruhe, Germany or PAN Biotech GmbH, Aidenbach, Germany). On the following day, the cells are loaded for 60 minutes at 37° C. with 2.13 μM Fluo-4 (Molecular Probes Europe BV, Leiden, Netherlands) in HBSS buffer (Hank's buffered saline solution, Gibco Invitrogen GmbH, Karlsruhe, Germany) […] (Sigma-Aldrich, Taufkirchen, Germany) and 10 mM HEPES (Sigma-Aldrich, Taufkirchen, Germany). The plates are then washed twice with HBSS buffer, and HBSS buffer additionally containing 0.1% BSA (bovine serum albumin; Sigma-Aldrich, Taufkirchen, Germany), 5.6 mM glucose and 0.05% gelatin (Merck KGaA, Darmstadt, Germany) is added to the plates. After incubation for a further 20 minutes at room temperature, the plates are inserted into the FLIPR or Novostar for Ca^2+ measurement. Alternatively, washing is carried out with buffer A (15 mM HEPES, 80 mM NaCl, 5 mM KCl, 1.2 mM CaCl2, 0.7 mM MgSO4, 2 g/l glucose, 2.5 mM probenecid) followed by loading with buffer A with added 2.5 μM Fluo-4 and 0.025% Pluronic F127 (Sigma-Aldrich, Taufkirchen, Germany). The cells are then washed twice with buffer A and incubated for 30 minutes at room temperature with buffer A additionally containing 0.05% BSA and 0.05% gelatin and are then inserted into the FLIPR or Novostar for Ca^2+ measurement. The Ca^2+-dependent fluorescence is measured before and after the addition of substances (λex=488 nm, λem=540 nm). Quantification is carried out by measuring the highest fluorescence intensity (FC, fluorescence counts) over time.
The FLIPR protocol consists of 2 substance additions, which are pipetted in the FLIPR. In the case of measurements using the Novostar, only the second substance addition is pipetted in the device. Both devices measure the fluorescence intensity over time. Test substances (10 μM) are first pipetted onto the cells and the intracellular Ca^2+ increase is compared with the control (hB1R: Lys-Des-Arg^9-bradykinin>=50 nM; rB1R: Des-Arg^9-bradykinin>=1 μM). This gives the % activation, based on the Ca^2+ signal after addition of Lys-Des-Arg^9-bradykinin (>=50 nM) or Des-Arg^9-bradykinin (>=1 μM). […]

| Structure (SMILES) | inhibition at 10 µM |
| --- | --- |
| Cc1cc(N2CCC(N(C)C(=O)c3ccc4c(c3)C(N(C)C(=O)c3c(Cl)cccc3C(F)(F)F)CC4)CC2)cc(C)n1 (stereo not drawn) [CC_H-108, 3-[[2-Chloro-6-(trifluoromethyl)-benzoyl]-methyl-amino]-N-[1-(2,6-dimethyl-pyridin-4-yl)-piperidin-4-yl]-N-methyl-2,3-dihydro-1H-indene-5-carboxylic acid amide] | 91% |
| Cc1cc(N2CCC(N(C)C(=O)c3ccc4c(c3)C(NC(=O)c3sccc3Cl)CC4)CC2)cc(C)n1 (stereo not drawn) [CC_H-109, 3-Chloro-N-[6-[[1-(2,6-dimethyl-pyridin-4-yl)-piperidin-4-yl]-methyl-carbamoyl]-2,3-dihydro-1H-inden-1-yl]-thiophene-2-carboxylic acid amide] | 100% |
| Cc1cc(N2CCC(N(C)C(=O)c3ccc4c(c3)C(NC(=O)c3cnccc3C(F)(F)F)CC4)CC2)cc(C)n1 (stereo not drawn) [CC_H-112, N-[6-[[1-(2,6-Dimethyl-pyridin-4-yl)-piperidin-4-yl]-methyl-carbamoyl]-2,3-dihydro-1H-inden-1-yl]-4-(trifluoromethyl)-pyridine-3-carboxylic acid amide] | 100% |
| Cc1cc(N2CCC(N(C)C(=O)c3ccc4c(c3)C(NC(=O)c3c(C)cccc3C)CC4)CC2)cc(C)n1 (stereo not drawn) [CC_H-115, 3-[(2,6-Dimethyl-benzoyl)amino]-N-[1-(2,6-dimethyl-pyridin-4-yl)-piperidin-4-yl]-N-methyl-2,3-dihydro-1H-indene-5-carboxylic acid amide] | 99% |
| O=C(NCCC1CCN(c2ccncc2)CC1)c1ccc2c(c1)C(NC(=O)C1CCCCC1)CC2 (stereo not drawn) [CC_H-116, 3-(Cyclohexanecarbonylamino)-N-[2-(1-pyridin-4-yl-piperidin-4-yl)-ethyl]-2,3-dihydro-1H-indene-5-carboxylic acid amide] | 92% |
| Cc1cc(N2CCC(N(C)C(=O)c3ccc4c(c3)C(NC(=O)c3cncnc3)CC4)CC2)cc(C)n1 (stereo not drawn) [CC_H-118, N-[6-[[1-(2,6-Dimethyl-pyridin-4-yl)-piperidin-4-yl]-methyl-carbamoyl]-2,3-dihydro-1H-inden-1-yl]-pyrimidine-5-carboxylic acid amide] | 89% |
| Cc1cc(N2CCC(N(C)C(=O)c3ccc4c(c3)C(NS(=O)(=O)Cc3ccccc3C(F)(F)F)CC4)CC2)cc(C)n1 (stereo not drawn) [CC_H-121, N-[1-(2,6-Dimethyl-pyridin-4-yl)-piperidin-4-yl]-N-methyl-3-[[[2-(trifluoromethyl)-phenyl]-methylsulfonyl]amino]-2,3-dihydro-1H-indene-5-carboxylic acid amide] | 100% |
| Cc1cc(N2CCC(N(C)C(=O)c3ccc4c(c3)C(NC(=O)CC(C)C)CC4)CC2)cc(C)n1 (stereo not drawn) [CC_H-122, N-[1-(2,6-Dimethyl-pyridin-4-yl)-piperidin-4-yl]-N-methyl-3-(3-methyl-butanoylamino)-2,3-dihydro-1H-indene-5-carboxylic acid amide] | 100% |
| Cc1cc(N2CCC(N(C)C(=O)c3ccc4c(c3)C(NC(=O)C3CCCCC3)CC4)CC2)cc(C)n1 (stereo not drawn) [CC_H-123, 3-(Cyclohexanecarbonylamino)-N-[1-(2,6-dimethyl-pyridin-4-yl)-piperidin-4-yl]-N-methyl-2,3-dihydro-1H-indene-5-carboxylic acid amide] | 100% |
| CN(C(=O)NC1CCc2cc(C(=O)N(C)C3CCN(c4ccncc4)CC3)ccc21)c1ccccc1Cl (stereo not drawn) [CC_H-126, 1-[[(2-Chlorophenyl)-methyl-carbamoyl]amino]-N-methyl-N-(1-pyridin-4-yl-piperidin-4-yl)-2,3-dihydro-1H-indene-5-carboxylic acid amide] | 100% |
| Cc1cc(N2CCC(N(C)C(=O)c3ccc4c(c3)C(N(C)S(=O)(=O)Cc3ccccc3C(F)(F)F)CC4)CC2)cc(C)n1 (stereo not drawn) [CC_H-129, N-[1-(2,6-Dimethyl-pyridin-4-yl)-piperidin-4-yl]-N-methyl-3-[methyl-[[2-(trifluoromethyl)-phenyl]-methylsulfonyl]-amino]-2,3-dihydro-1H-indene-5-carboxylic acid amide] | 100% |

Results, then the compound that gave them:

| inhibition at 10 µM | Structure (SMILES) |
| --- | --- |
| 100% | Cc1cc(N2CCC(N(C)C(=O)c3ccc4c(c3)C(NS(=O)(=O)c3c(Cl)cccc3C(F)(F)F)CC4)CC2)cc(C)n1 (stereo not drawn) [CC_H-111, 3-[[[2-Chloro-6-(trifluoromethyl)-phenyl]sulfonyl]amino]-N-[1-(2,6-dimethyl-pyridin-4-yl)-piperidin-4-yl]-N-methyl-2,3-dihydro-1H-indene-5-carboxylic acid amide] |
| 100% | Cc1cc(N2CCC(N(C)C(=O)c3ccc4c(c3)C(NC(=O)c3cc(F)ccc3Cl)CC4)CC2)cc(C)n1 (stereo not drawn) [CC_H-119, 3-[(2-Chloro-5-fluoro-benzoyl)amino]-N-[1-(2,6-dimethyl-pyridin-4-yl)-piperidin-4-yl]-N-methyl-2,3-dihydro-1H-indene-5-carboxylic acid amide] |
| 100% | Cc1cc(N2CCC(N(C)C(=O)c3ccc4c(c3)C(NC(=O)CCC3CCCC3)CC4)CC2)cc(C)n1 (stereo not drawn) [CC_H-120, 3-(3-Cyclopentyl-propanoylamino)-N-[1-(2,6-dimethyl-pyridin-4-yl)-piperidin-4-yl]-N-methyl-2,3-dihydro-1H-indene-5-carboxylic acid amide] |
| 68% | CN(C(=O)c1ccc2c(c1)C(NC(=O)c1cncnc1)CCO2)C1CCN(c2ccncc2)CC1 (stereo not drawn) [CC_H-124, N-[6-[Methyl-(1-pyridin-4-yl-piperidin-4-yl)-carbamoyl]-3,4-dihydro-2H-chromen-4-yl]-pyrimidine-5-carboxylic acid amide] |
| 100% | CN(C(=O)c1ccc2c(c1)C(NS(=O)(=O)Cc1ccccc1C(F)(F)F)CCC2)C1CCN(c2ccncc2)CC1 (stereo not drawn) [CC_H-125, N-Methyl-N-(1-pyridin-4-yl-piperidin-4-yl)-8-[[[2-(trifluoromethyl)-phenyl]-methylsulfonyl]amino]-5,6,7,8-tetrahydro-naphthalene-2-carboxylic acid amide] |
| 95% | CN(C(=O)c1ccc2c(c1)CCC2NC(=O)c1c(Cl)cccc1C(F)(F)F)C1CCN(c2ccncc2)CC1 (stereo not drawn) [CC_H-127, 1-[[2-Chloro-6-(trifluoromethyl)-benzoyl]amino]-N-methyl-N-(1-pyridin-4-yl-piperidin-4-yl)-2,3-dihydro-1H-indene-5-carboxylic acid amide] |
| 99% | O=C(NCCC1CCN(c2ccncc2)CC1)c1ccc2c(c1)C(NS(=O)(=O)Cc1ccccc1C(F)(F)F)CC2 (stereo not drawn) [CC_H-128, N-[2-(1-Pyridin-4-yl-piperidin-4-yl)-ethyl]-3-[[[2-(trifluoromethyl)-phenyl]-methylsulfonyl]amino]-2,3-dihydro-1H-indene-5-carboxylic acid amide] |
